Measured values: US7722893B2, “Use of substitute 2,4-bis (alkylamino) pyrimidines or quinzolines as antimicrobials” (Ciba Specialty Chemicals Corporation, priority 2003, dated 2010)
Blank lines part the entries; values can stand above or below the compound they belong to.

Legend:
S. gordonii ATCC 10558 = assay: MIC of a broadened organism spectrum: oral organisms; format: cell-based, Streptococcus gordonil; details: for MIC: Streptococcus gordonii, ATCC10558, 24 hours aerobic with 10% CO2, read-out: minimum inhibiting concentration MIC, oral organisms
Text: (§1) Determination of the Minimum Inhibiting Concentration MIC (ppm) of a Broadened Organism Spectrum: Oral Organisms
(§2) • Medium: thioglycolate bouillon with hemin and menadione Columbia bouillon with hemin and menadione for P. gingivalis and P. nigrescens • Dilution medium: the appropriate amount of the substances was pipetted directly into the medium. • Test organisms: Actinobacillus actinomycetemcomitans ATCC 43718 • Streptococcus gordonil ATCC 10558 • Streptococcus mutans ATCC 33402 • Actinomyces viscosus ATCC 43146 • Fusobacterium nucleatum subsp. polymorphum ATCC 10953 • Porphyromonas gingivalis ATCC 33277 • Prevotella nigrescens ATCC 33563 • Incubation: 7-10 days at 37° C anaerobic, or 24 hours aerobic with 10% CO2 for Streptococci and A. actinomycetemcomitans • Test solution: Stock solutions of all the test substances in ethanol at 1500 ppm (w/w) are used. Test Principle:
(§3) Bacteria are removed from blood agar plates using cotton wool buds and a suitable optical density (McFarland 0.5) is adjusted in an appropriate medium; that solution is used undiluted for F. nucleatum and P. nigrescens, and in a dilution of 1:20 for the other strains. 0.1 ml of bacterial culture is added per 2 ml of active ingredient solution and incubation is carried out as described above.

[1] = test system: Klebsiella pneumoniae ATCC 4352; assay: MIC of a broadened organism spectrum (agar); format: cell-based; details: for MIC: ATCC4352, 24 hours at 37° C., read-out: minimum inhibiting concentration MIC
Text: (§4) Determination of the Minimum Inhibiting Concentration MIC [ppm] of a Broadened Organism Spectrum
(§5) • Medium: Casein/soybean flour peptone agar (Merck) • *Sabouraud 4% glucose agar (Merck) • Dilution medium: sterile 0.85% NaCl solution • Test organisms: Staphylococcus aureus ATCC 6853 and 9144 • Staphylococcus epidermidis ATCC 12228 • C. xerosis ATCC 373 ** • C. minutissimum ATCC 23348 • Proplonibacterium acnes ATCC 6919 • Escherichia coli ATCC 10536 and NCTC 8196 • Proteus vulgaris ATCC 6896 • Klebsiella pneumoniae ATCC 4352 • Salmonella choleraesuis ATCC 9184 • Pseudomonas aeruginosa ATCC 15442 • *Candida albicans ATCC 10231 • *Aspergillus niger ATCC 6275 • Incubation: 24 hours at 37° C. • *3 days at 28° C. • Test solution: 1% stock solutions of all the test substances in a suitable solvent are prepared and diluted in serial dilutions (1:10, 1:100 and 1:1000 dilution), where possible diluted to such an extent that the end concentrations in agar are from 500 ppm to 10 ppm. Test principle:
(§6) 0.3 ml of the dilution stage in question is mixed with 15 ml of still-liquid nutrient medium.
(§7) When the nutrient substrate has solidified, 10 μl portions of a suitable organism dilution of the test strains in 0.85% NaCl solution are spotted onto the agar medium: […]

[2] = test system: Staphylococcus epidermidis ATCC 12228; assay: MIC of a broadened organism spectrum (agar); format: cell-based; details: for MIC: ATCC12228, 24 hours at 37° C., read-out: minimum inhibiting concentration MIC
Text: as §4, §5, §6, §7

[3] = test system: Staphylococcus aureus ATCC 9144; assay: MIC of a broadened organism spectrum (agar); format: cell-based; details: for MIC: ATCC9144, 24 hours at 37° C., read-out: minimum inhibiting concentration MIC
Text: as §4, §5, §6, §7

[4] = test system: Pseudomonas aeruginosa ATCC 15442; assay: MIC of a broadened organism spectrum (agar); format: cell-based; details: for MIC: ATCC15442, 24 hours at 37° C., read-out: minimum inhibiting concentration MIC
Text: as §4, §5, §6, §7

[5] = test system: Staphylococcus aureus ATCC 6538; assay: MIC of a broadened organism spectrum (agar); format: cell-based; details: for MIC: ATCC6538, 24 hours at 37° C., read-out: minimum inhibiting concentration MIC
Text: as §4, §5, §6, §7

[6] = test system: C. minutissimum ATCC 23348; assay: MIC of a broadened organism spectrum (agar); format: cell-based; details: 3 days incubation (Table 3a); for MIC: Corynebacterium minutissimum, ATCC23348, 72 h, read-out: minimum inhibiting concentration MIC
Text: as §4, §5, §6, §7

[7] = test system: Propionibacterium acnes ATCC 6919; assay: MIC of a broadened organism spectrum (agar); format: cell-based; details: 3 days incubation under anaerobic conditions; for MIC: Cutibacterium acnes, ATCC6919, 72 h, read-out: minimum inhibiting concentration MIC
Text: as §4, §5, §6, §7

[8] = test system: Candida albicans ATCC 10231; assay: MIC of a broadened organism spectrum (agar); format: cell-based; details: Sabouraud 4% glucose agar, 3 days at 28° C.; for MIC: ATCC10231, 72 h, read-out: minimum inhibiting concentration MIC
Text: as §4, §5, §6, §7

[9] = test system: Escherichia coli NCTC 8196; assay: MIC of a broadened organism spectrum (agar); format: cell-based; details: for MIC: NCTC8196, 24 hours at 37° C., read-out: minimum inhibiting concentration MIC
Text: as §4, §5, §6, §7

[10] = test system: Proteus vulgaris ATCC 6896; assay: MIC of a broadened organism spectrum (agar); format: cell-based; details: for MIC: ATCC6896, 24 hours at 37° C., read-out: minimum inhibiting concentration MIC
Text: as §4, §5, §6, §7

[11] = test system: Salmonella choleraesuis ATCC 9184; assay: MIC of a broadened organism spectrum (agar); format: cell-based; details: 24 hours at 37° C.; for MIC: Salmonella enterica, read-out: minimum inhibiting concentration MIC
Text: as §4, §5, §6, §7

[12] = test system: Aspergillus niger ATCC 6275; assay: MIC of a broadened organism spectrum (agar); format: cell-based; details: Sabouraud 4% glucose agar, 3 days at 28° C.; for MIC: ATCC6275, 72 h, read-out: minimum inhibiting concentration MIC
Text: as §4, §5, §6, §7

[13] = test system: Escherichia coli ATCC 10536; assay: MIC of a broadened organism spectrum (agar); format: cell-based; details: for MIC: ATCC10536, 24 hours at 37° C., read-out: minimum inhibiting concentration MIC
Text: as §4, §5, §6, §7

C. xerosis ATCC 373 = assay: MIC of a broadened organism spectrum (agar); format: cell-based; details: 3 days incubation; for MIC: Corynebacterium xerosis, ATCC373, 72 h, read-out: minimum inhibiting concentration MIC
Text: as §4, §5, §6, §7

P. gingivalis ATCC 3277 = assay: MIC of a broadened organism spectrum: oral organisms; format: cell-based, Porphyromonas gingivalis; details: 7-10 days at 37° C anaerobic; for MIC: Porphyromonas gingivalis, ATCC3277, Columbia bouillon, read-out: minimum inhibiting concentration MIC, oral organisms
Text: as §1, §2, §3

[14] = test system: Fusobacterium nucleatum subsp. polymorphum ATCC 10953; assay: as above; format: cell-based; details: F. nucleatum subsp. polymorphum ATCC 10953, 7-10 days at 37° C anaerobic; for MIC: Fusobacterium nucleatum, ATCC10953, read-out: minimum inhibiting concentration MIC, oral organisms
Text: as §1, §2, §3

[15] = test system: Actinobacillus actinomycetemcomitans ATCC 43718; assay: as above; format: cell-based; details: A. actinomycetemcomitans ATCC 43718, 24 hours aerobic with 10% CO2; for MIC: Aggregatibacter actinomycetemcomitans, ATCC43718, read-out: minimum inhibiting concentration MIC, oral organisms
Text: as §1, §2, §3

[16] = test system: Actinomyces viscosus ATCC 43146; assay: as above; format: cell-based; details: A. viscosus ATCC 43146, 7-10 days at 37° C anaerobic; for MIC: Actinomyces viscosus, ATCC43146, read-out: minimum inhibiting concentration MIC, oral organisms
Text: as §1, §2, §3

[17] = test system: Prevotella nigrescens ATCC 33563; assay: as above; format: cell-based; details: P. nigrescens ATCC 33563, Columbia bouillon, 7-10 days at 37° C anaerobic; for MIC: Prevotella nigrescens, ATCC33563, read-out: minimum inhibiting concentration MIC, oral organisms
Text: as §1, §2, §3

[18] = test system: Streptococcus mutans ATCC 33402; assay: as above; format: cell-based; details: S. mutans ATCC 33402, 24 hours aerobic with 10% CO2; for MIC: Streptococcus mutans, ATCC33402, read-out: minimum inhibiting concentration MIC, oral organisms
Text: as §1, §2, §3

Structure (SMILES): CCCCCCCCNc1cc(C)nc(NCCCCCCCC)n1 [PY5, N,N′-bis(2,4-dioctylamino)-6-methylpyrimidine]
minimum inhibiting concentration MIC, oral organisms (S. gordonii ATCC 10558; 24 hours aerobic with 10% CO2): 15 ppm | minimum inhibiting concentration MIC ([1]; 24 hours at 37° C.): 250 ppm | minimum inhibiting concentration MIC ([2]; 24 hours at 37° C.): 3.91 ppm | minimum inhibiting concentration MIC ([3]; 24 hours at 37° C.): 3.91 ppm | minimum inhibiting concentration MIC ([4]; 24 hours at 37° C.): >1000 ppm | minimum inhibiting concentration MIC ([5]; 24 hours at 37° C.): 3.91 ppm | minimum inhibiting concentration MIC [6]: 3.91 ppm | minimum inhibiting concentration MIC [7]: 3.91 ppm | minimum inhibiting concentration MIC [8]: >1000 ppm | minimum inhibiting concentration MIC ([9]; 24 hours at 37° C.): >1000 ppm | minimum inhibiting concentration MIC ([10]; 24 hours at 37° C.): >1000 ppm | minimum inhibiting concentration MIC [11]: >1000 ppm | minimum inhibiting concentration MIC [12]: >1000 ppm | minimum inhibiting concentration MIC ([13]; 24 hours at 37° C.): >1000 ppm | minimum inhibiting concentration MIC (C. xerosis ATCC 373): 7.81 ppm | minimum inhibiting concentration MIC, oral organisms (P. gingivalis ATCC 3277; Columbia bouillon): 7.5 ppm | minimum inhibiting concentration MIC, oral organisms [14]: >15 ppm | minimum inhibiting concentration MIC, oral organisms [15]: >15 ppm | minimum inhibiting concentration MIC, oral organisms [16]: 3.75 ppm | minimum inhibiting concentration MIC, oral organisms [17]: 15 ppm | minimum inhibiting concentration MIC, oral organisms [18]: 3.75 ppm

Structure (SMILES): CCCCCCCCNc1nc(C)c(CCCCCC)c(NCCOCCOCCN)n1 [PY55]
MIC (S. gordonii ATCC 10558): 3.8 µg/mL | MIC [1]: 15.6 µg/mL | MIC [2]: 7.8 µg/mL | MIC [3]: 3.9 µg/mL | MIC [4]: > 500 µg/mL | MIC [5]: 7.8 µg/mL | MIC [6]: 3.9 µg/mL | MIC [7]: 3.9 µg/mL | MIC [8]: 125 µg/mL | MIC [9]: 7.8 µg/mL | MIC [10]: > 500 µg/mL | MIC [11]: 7.8 µg/mL | MIC [12]: 500 µg/mL | MIC [13]: 7.8 µg/mL | MIC (C. xerosis ATCC 373): 3.9 µg/mL | MIC (P. gingivalis ATCC 3277): 3.8 µg/mL | MIC [14]: 7.5 µg/mL | MIC [15]: 15 µg/mL | MIC [16]: 3.8 µg/mL | MIC [17]: 3.8 µg/mL | MIC [18]: 7.5 µg/mL

Structure (SMILES): CCCCCCCCNc1nc(C)cc(N2CCCC2)n1 [PY44]
MIC (S. gordonii ATCC 10558): 7.5 µg/mL | MIC [1]: 7.8 µg/mL | MIC [2]: 3.9 µg/mL | MIC [3]: 7.8 µg/mL | MIC [4]: > 500 µg/mL | MIC [5]: 7.8 µg/mL | MIC [6]: 3.9 µg/mL | MIC [7]: 3.9 µg/mL | MIC [8]: 250 µg/mL | MIC [9]: 15.6 µg/mL | MIC [10]: > 500 µg/mL | MIC [11]: 62.5 µg/mL | MIC [12]: 500 µg/mL | MIC [13]: 62.5 µg/mL | MIC (C. xerosis ATCC 373): 3.9 µg/mL | MIC (P. gingivalis ATCC 3277): 3.8 µg/mL | MIC [14]: 3.8 µg/mL | MIC [15]: > 15 µg/mL | MIC [16]: 3.8 µg/mL | MIC [17]: 3.8 µg/mL | MIC [18]: 7.5 µg/mL

Further lines, with some results ahead:

MIC (S. gordonii ATCC 10558): > 15 µg/mL | MIC [1]: 15.6 µg/mL | MIC [2]: 31.2 µg/mL | MIC [3]: 31.2 µg/mL | MIC [4]: > 500 µg/mL | MIC [5]: 31.2 µg/mL | MIC [6]: 15.6 µg/mL | MIC [7]: 31.2 µg/mL | MIC [8]: 250 µg/mL | MIC [9]: 31.2 µg/mL | MIC [10]: > 500 µg/mL | MIC [12]: 250 µg/mL | MIC [13]: 62.5 µg/mL | MIC (C. xerosis ATCC 373): 7.8 µg/mL | MIC (P. gingivalis ATCC 3277): 15 µg/mL | MIC [14]: 15 µg/mL | MIC [15]: > 15 µg/mL | MIC [16]: 3.75 µg/mL | MIC [17]: 15 µg/mL | MIC [18]: > 15 µg/mL
Structure (SMILES): Cc1cc(NCc2ccccc2)nc(NCc2ccccc2)n1 [PY8, N,N′-Bis(2,4-dibenzylamino)-6-methylpyrimidine]
MIC [11]: 62.5 µg/mL

MIC (S. gordonii ATCC 10558): 15 µg/mL | MIC [1]: 7.8 µg/mL | MIC [2]: 7.8 µg/mL | MIC [3]: 7.8 µg/mL | MIC [4]: > 500 µg/mL | MIC [5]: 7.8 µg/mL | MIC [6]: 3.9 µg/mL | MIC [7]: 7.8 µg/mL | MIC [8]: 62.5 µg/mL | MIC [9]: 15.6 µg/mL | MIC [10]: > 500 µg/mL | MIC [12]: 250 µg/mL | MIC [13]: 250 µg/mL | MIC (C. xerosis ATCC 373): 1.95 µg/mL | MIC (P. gingivalis ATCC 3277): 7.5 µg/mL | MIC [14]: 15 µg/mL | MIC [15]: > 15 µg/mL | MIC [16]: 3.75 µg/mL | MIC [17]: 7.5 µg/mL | MIC [18]: 15 µg/mL
Structure (SMILES): Cc1cc(NCCc2ccccc2)nc(NCCc2ccccc2)n1 [PY9, N,N′-Bis(2,4-diphenylethylamino)-6-methylpyrimidine]
MIC [11]: 250 µg/mL
